Where two headings read alike, the source gives them in different places.
Key:
SARS-CoV-2 3CL^pro = SARS-CoV-2 3CL^pro (Severe acute respiratory syndrome coronavirus 2 (2019-nCoV) (SARS-CoV-2), UniProt P0DTD1); assay: biochemical; conditions: for IC50: FRET
HEK293 cells = assay: In-vitro cytotoxicity by the MTT method, HEK293 cells; conditions: 24 hrs
Description: (§1) The in-vitro cytotoxicity of Compounds 1, 12, and 17 was evaluated by the MTT method. HepG2, HEK293 and A549 cells in logarithmic growth phase were respectively trypsinized into a cell suspension. The cell density was adjusted to 5×10^4 cells/mL. 180 μL per well of the cell suspension was inoculated into a sterile 96-well plate at 37° C., and cultured in an incubator at 5% CO2 for 24 hrs. After the cells were attached to the bottom of the plate, 20 μL of the drug solutions over the concentration gradients were respectively added into each well, and 6 replicate wells were set in parallel. Also, a blank group (group without cells and drug) and a control group (group without drug) were set. The system was incubated in an incubator at 37° C. and 5% CO2 for 24 hrs, and then 20 μL per well of a 5 g/L MTT solution was added and incubated for another 4 hrs. After the incubation was completed, the culture medium in the well was gently aspirated, and 100 μL of DMSO was added to each well. Then the crystal was fully dissolved in a shaker for 10 min at a low speed. After that, the absorbency of each well was measured at OD490 nm in an enzymelinked immunodetector, and the survival rate of cells was calculated.

A549 cells = assay: In-vitro cytotoxicity by the MTT method, A549 cells; conditions: 24 hrs
Description: as §1

HepG2 cells = assay: In-vitro cytotoxicity by the MTT method, HepG2 cells; conditions: 24 hrs
Description: as §1

CCn1nnnc1Cn1c(=O)[nH]/c(=N\c2cc3cn(C)nc3cc2Cl)n(Cc2cc(F)c(F)cc2F)c1=O [Compound 17]
IC50 (SARS-CoV-2 3CL^pro; class symbols, read-out: IC50 (nM), inhibitory activity against 3CL^pro): < 200 nM | IC50 (SARS-CoV-2 3CL^pro; non-linear regression, read-out: IC50 against 3CL^pro): 160 nM | inhibition percentage of 3CL^pro (SARS-CoV-2 3CL^pro; concentration 0.1 nM): 0.76% | inhibition percentage of 3CL^pro (SARS-CoV-2 3CL^pro; concentration 1 nM): 1.93% | inhibition percentage of 3CL^pro (SARS-CoV-2 3CL^pro; concentration 5 nM): 6.21% | inhibition percentage of 3CL^pro (SARS-CoV-2 3CL^pro; concentration 10 nM): 7.67% | inhibition percentage of 3CL^pro (SARS-CoV-2 3CL^pro; concentration 20 nM): 12.76% | inhibition percentage of 3CL^pro (SARS-CoV-2 3CL^pro; concentration 30 nM): 17.92% | inhibition percentage of 3CL^pro (SARS-CoV-2 3CL^pro; concentration 50 nM): 25.23% | inhibition percentage of 3CL^pro (SARS-CoV-2 3CL^pro; concentration 100 nM): 44.76% | inhibition percentage of 3CL^pro (SARS-CoV-2 3CL^pro; concentration 500 nM): 68.52% | inhibition percentage of 3CL^pro (SARS-CoV-2 3CL^pro; concentration 1000 nM): 85.36% | Survival rate of HEK293 cells (HEK293 cells; 1.5625 nM): 93.79% | Survival rate of HEK293 cells (HEK293 cells; 3.125 nM): 93.12% | Survival rate of HEK293 cells (HEK293 cells; 6.25 nM): 93.48% | Survival rate of HEK293 cells (HEK293 cells; 12.5 nM): 90.79% | Survival rate of HEK293 cells (HEK293 cells; 25 nM): 85.73% | Survival rate of HEK293 cells (HEK293 cells; 50 nM): 84.32% | Survival rate of HEK293 cells (HEK293 cells; 100 nM): 83.83% | Survival rate of HEK293 cells (HEK293 cells; 200 nM): 79.45% | Survival rate of HEK293 cells (HEK293 cells; 400 nM): 78.03% | Survival rate of A549 cells (A549 cells; 1.5625 nM): 98.02% | Survival rate of A549 cells (A549 cells; 3.125 nM): 97.96% | Survival rate of A549 cells (A549 cells; 6.25 nM): 97.24% | Survival rate of A549 cells (A549 cells; 12.5 nM): 96.38% | Survival rate of A549 cells (A549 cells; 25 nM): 95.77% | Survival rate of A549 cells (A549 cells; 50 nM): 94.13% | Survival rate of A549 cells (A549 cells; 100 nM): 94.21% | Survival rate of A549 cells (A549 cells; 200 nM): 93.31% | Survival rate of A549 cells (A549 cells; 400 nM): 91.33% | Survival rate of HepG2 cells (HepG2 cells; 1.5625 nM): 95.56% | Survival rate of HepG2 cells (HepG2 cells; 3.125 nM): 95.79% | Survival rate of HepG2 cells (HepG2 cells; 6.25 nM): 94.43% | Survival rate of HepG2 cells (HepG2 cells; 12.5 nM): 91.02% | Survival rate of HepG2 cells (HepG2 cells; 25 nM): 90.46% | Survival rate of HepG2 cells (HepG2 cells; 50 nM): 87.13% | Survival rate of HepG2 cells (HepG2 cells; 100 nM): 83.85% | Survival rate of HepG2 cells (HepG2 cells; 200 nM): 80.42% | Survival rate of HepG2 cells (HepG2 cells; 400 nM): 76.13%
